Experimental data as given in PMC7734798 (ACS Medicinal Chemistry Letters, 2020).
Values joined by “and” are separate entries in the source; they are usually repeats but may differ in a detail not shown here. Identical values can stand only once. Like-named read-outs stand apart in the source and are kept apart here.

Experiments:
[1] = Brain stability / hydrolysis kinetics in rat brain homogenate (LC-DAD-MS/MS); type: in vitro ADME; settings: 37 °C; for hydrolysis in rat brain homogenate in presence of FAAH inhibitor PF-3845: 5 μM PF-3845; for time to total disappearance of starting compound in rat brain homogenate / half-life at 1 µg/mL: absence of FAAH inhibitor; for half-life at 1 µg/mL: rat, brain homogenate
Procedure: We anticipated that, once they entered into the brain, conjugates would be hydrolyzed to the individual components by intracellular metabolic enzymes processing fatty acid derivatives (e.g., FAAH).[9],[17] Thus, the stability of 1 and 2 was evaluated by LC-DAD-MS/MS analysis of rat brain homogenate incubated with the conjugates, which was sampled at regular intervals over 1 h. To obtain initial clues on the implication of FAAH enzymes in hydrolysis, the assays were performed in the absence and presence of 5 μM FAAH inhibitor PF-3845.[9]
Velp (Usmate, Italy) RX3 vortex mixer and an Elma (Singen, Germany) Sonic T310 Trans ultrasonic […]
Chromatographic runs were obtained on an Agilent (Palo Alto, Ca, US) ZORBAX SB-C18 column (50 × 2.1 mm I.D., 3.5 µm particles), maintained at room temperature and equipped with a guard column. The mobile phase was a mixture of 0.1% aqueous formic acid (A) and acetonitrile (B), flowing at a constant rate of 0.3 mL/min. The mobile phase was set in isocratic mode with A:B ratio of (65:35, V:V); the two components of the mobile phase were filtered through Sartorius (Göttingen, Germany) membrane filters (47 mm diameter, polyamide, 0.2 µm pore size) and degassed by an ultrasonic bath. The injection volume was 10 μL. For compound purity, Total Ion Current (TIC) mode was used and DAD chromatograms were checked at 200 nm and 540 nm. For compound stability and hydrolysis studies, multiple reaction monitoring (MRM) acquisition mode was set up for both compounds 1 and 2, by flow-injection analysis directly in the MS source, in order to optimize ionization parameters and to select two exclusive MRM m/z transitions for each analyte, exploited for quantitative purposes and for qualitative confirmation, respectively.
Sample analysis and method validation […]
For compound stability and hydrolysis studies, after setting up MRM acquisition mode for both 1 and 2 as described previously, the LC-MS/MS method was coupled to an optimized sample preparation protocol to be applied to biological matrices, namely rat plasma and rat brain homogenate. Briefly, for both matrices, 1-mL sample was brought to 37±0.5°C by means of a thermostatted water bath.
Then, 50µL of analyte working solution was added to the matrix sample in order to obtain a final […]
concentration of 1 µg/mL. […]
plasma) and hydrolysis (in brain homogenate). Then, at regular intervals (5, 10, 15, 20, 25, 30, 45, 60 min) a 50-µL aliquot was sampled from the vial, added with 50 µL of ice-cold ACN and centrifuged for 5 min at 4500 rpm at 5°C. The resulting supernatant was subjected to an original miniaturized extraction procedure, based on microextraction by packed sorbent (MEPS), in order to purify the samples from potential interfering signals deriving from the matrices. The solution obtained after MEPS procedure was directly injected into the LC-MS/MS system under the optimized conditions previously described. Compound quantitation was obtained by integrating peak areas obtained from sample analysis and by interpolation on the linearity curve of each analyte. All analyses were carried out in triplicate and results were then expressed as % of remaining compound with respect to that assessed at t0 (100%), plotted against the defined time points.
In order to be applied for stability and hydrolysis studies, the MEPS-LC-MS/MS method was fully validated on both plasma and brain homogenate samples fortified with known amounts of compounds 1 and 2, pretreated and analyzed right after the addition of analyte working solutions. Method validation was performed according to the main international guidelines [ICH Harmonised Tripartite Guideline. Validation of Analytical Procedures: Text and Methodology Q2(R1); International Conference on Harmonisation of Technical] in terms of linearity (including limit of detection, LOD and limit of quantitation, LOQ), precision, accuracy, extraction yield and matrix effect.

[2] = test system: human liver carcinoma immortalized cell line (HepG2); settings: for cell survival/death in HepG2 cells, % mean ± SE of controls (MTT): 24 h treatment; for hepatotoxicity in HepG2 (in words): even at the higher tested concentrations

Compound: CC/C=C\C/C=C\C/C=C\CCCCCCCC(=O)NCCOC(=O)C(CCC)CCC [compound 2]
- hydrolysis in rat brain homogenate in presence of FAAH inhibitor PF-3845 [1]: blocks the hydrolysis of both 1 and 2 to a large extent
- time to total disappearance of starting compound in rat brain homogenate [1]: ≤ 1 h
- half-life at 1 µg/mL [1]: ~16 min
- cell survival/death in HepG2 cells, % mean ± SE of controls (MTT) ([2]; 5 μM): 102 ± 10%
- cell survival/death in HepG2 cells, % mean ± SE of controls (MTT) ([2]; 10 μM): 104 ± 4%
- cell survival/death in HepG2 cells, % mean ± SE of controls (MTT) ([2]; 25 μM): 84 ± 6% and > 80%
- cell survival/death in HepG2 cells, % mean ± SE of controls (MTT) ([2]; 50 μM): 80 ± 9%
- hepatotoxicity in HepG2 (in words) [2]: low hepatotoxicity

Compound: CC/C=C\C/C=C\C/C=C\CCCCCCCC(=O)NCCNC(=O)C(CCC)CCC [compound 1]
- hydrolysis in rat brain homogenate in presence of FAAH inhibitor PF-3845 [1]: blocks the hydrolysis of both 1 and 2 to a large extent
- time to total disappearance of starting compound in rat brain homogenate [1]: ≤ 1 h
- half-life at 1 µg/mL [1]: ~23 min
- cell survival/death in HepG2 cells, % mean ± SE of controls (MTT) ([2]; 5 μM): 87 ± 13%
- cell survival/death in HepG2 cells, % mean ± SE of controls (MTT) ([2]; 10 μM): 93 ± 5%
- cell survival/death in HepG2 cells, % mean ± SE of controls (MTT) ([2]; 25 μM): 81 ± 10% and > 80%
- cell survival/death in HepG2 cells, % mean ± SE of controls (MTT) ([2]; 50 μM): 64 ± 8%
- hepatotoxicity in HepG2 (in words) [2]: low hepatotoxicity
